In BindingDB's records for doi:10.1021/bi1006354 (Beactica, 2010):
Where “and” joins values, the source holds several entries; their conditions need not be identical. Identical values can stand only once.

molecular target: Acetylcholine-binding protein (Lymnaea stagnalis, UniProt P58154); assay: Interaction Assay; conditions: pH 7.4; 25 °C
Text: Interaction assay using AChBP.

Acetylcholine-binding protein, sequence (P58154 whole entry): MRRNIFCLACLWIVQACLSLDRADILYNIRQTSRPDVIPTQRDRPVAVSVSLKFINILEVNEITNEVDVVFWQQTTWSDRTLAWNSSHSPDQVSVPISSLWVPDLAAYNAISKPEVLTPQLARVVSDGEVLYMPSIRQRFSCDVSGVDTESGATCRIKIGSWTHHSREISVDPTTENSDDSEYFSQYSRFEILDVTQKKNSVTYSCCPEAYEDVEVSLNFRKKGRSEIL

Question: With `CC(=O)OCC[N+](C)(C)C` [2-acetoxyethyl(trimethyl)ammonium;perchlorate] as the molecule, how does the Kd read?
Answer: 458 nM and 3850 nM

Question: For `CN(C)CCc1cccnc1` [Quinuclidine analogue, 1], which Kd is on record?
Answer: 4250 nM

Question: Which Kd does the source give for `N[C@@H]1C2CCN(CC2)C1Cc1cccnc1` (stereo not given in full) [Quinuclidine analogue, 2] here?
Answer: 345 nM

Question: With `O=C(N[C@@H]1C2CCN(CC2)C1Cc1cccnc1)c1ccccc1` (stereo not given in full) [Quinuclidine analogue, 3] as the molecule, how does the Kd read?
Answer: 141 nM

Question: `O=C(N[C@@H]1C2CCN(CC2)C1Cc1cccnc1)c1cc2ccccc2o1` (stereo not given in full) [Quinuclidine analogue, 5] was tested. Which Kd did it give?
Answer: 12.8 nM
